In PMC4459817, “Vasculotide reduces endothelial permeability and tumor cell extravasation in the absence of binding to or agonistic activation of Tie2” (EMBO Molecular Medicine, 2015):

What was measured:
[1] = system: advanced metastatic breast cancer; settings: monotherapy or combined with chemotherapies; ref Ebos & Kerbel, 2011; Mackey et al, 2012; cited from earlier work
Excerpt: These clinical results were recently replicated in a preclinical model of postsurgical advanced MBC (Guerin et al, [2013]). As discussed previously (Guerin et al, [2013]), primary and secondary tumors may have divergent responses to anti-angiogenic ...

Tie2+ ECs (HMVEC-LBl) = test: MTS cell viability assay, endothelial cells; type: cell-based, human; settings: for IC50: Homo sapiens, Endothelial cell, 48 h, SU in MTS viability assay, predetermined from dose-response curves, cell line of IC50 not clearly printed
Procedure: TCs were cultured in DMEM High Glucose basal media supplemented with 5% FBS and grown humidified incubators at 37 °C, 21%O2 and 5%CO2 unless otherwise specified. LM2-4 luc is a highly metastatically aggressive variant of the human breast carcinoma MDA-MB-231 cell line (derived through serial in vivo selection of lung metastases from orthotopic implantations in immunodeficient mice) that has been transfected with a firefly luciferase vector (Man et al, 2007; Ebos et al, 2009). HT29luc is a human colon carcinoma cell line also transfected with the luciferase gene (Hackl et al, 2013). SN12luc refers to a luciferase-tagged and highly metastatic clone of a human renal cell carcinoma cell line, SN12-PM6-L1luc (Jedeszko et al, 2015). MeWo is a human melanoma cell line (Ebos et al, 2009).
2. Endothelial cells (ECs)
ECs were grown in humidified incubators at 37 °C, 21%O2 and 5%CO2 unless otherwise specified.
Primary human microvascular ECs derived from adult lung blood vessels (HMVEC-LBl, Lonza CC-2815 or HLMEC ) or neonatal dermal blood vessels (HMVEC-DBl, Lonza CC-2813 or HDMEC) were grown in EBM-2 basal media (Lonza CC-3156), supplemented with EGM-2-MV growth factors (Lonza CC-4147, which includes 5% FBS and 2 ng/mL VEGF). Primary human umbilical vein ECs (HUVECs) were grown on 1% gelatinized plates in F12K media, supplemented with 10% FBS, 0.1 mg/mL heparin sodium, 10 ng/mL EGF, 10 ng/mL VEGF, 5 ng/mL bFGF and penicillin + streptomycin + 2mM L-glutamine (P/S/Glut). Transformed human EA.hy926 and murine MS1 ECs were grown in DMEM + 10% FBS + P/S/Glut (+ HAT for EA.hy926).
3. […]
5,000 LM2-4luc or HMVEC-LBl cells, in 100uL of their regular growth media, were seeded per well on a 96-well plate. […] Absorbances were read at 490nm and background-corrected with reference 560nm readings or acellular treatment-only […]
4. […] Protein concentrations in TC-CM vs. control media were measured using: a Quantikine ELISA kit (R&D Systems DVE00) for human VEGF; a FlowCytomix Multiplex kit (eBioscience BMS810FF) for human IL-6 and IL-8; and a BCA protein assay kit (Thermo Scientific) for total protein.

[2] = target: T1, mouse Tie2-Fc (Fc-conjugated extracellular domain of Tie2) (mouse, UniProt Q02858 23-746); test: SPR
T1 chain: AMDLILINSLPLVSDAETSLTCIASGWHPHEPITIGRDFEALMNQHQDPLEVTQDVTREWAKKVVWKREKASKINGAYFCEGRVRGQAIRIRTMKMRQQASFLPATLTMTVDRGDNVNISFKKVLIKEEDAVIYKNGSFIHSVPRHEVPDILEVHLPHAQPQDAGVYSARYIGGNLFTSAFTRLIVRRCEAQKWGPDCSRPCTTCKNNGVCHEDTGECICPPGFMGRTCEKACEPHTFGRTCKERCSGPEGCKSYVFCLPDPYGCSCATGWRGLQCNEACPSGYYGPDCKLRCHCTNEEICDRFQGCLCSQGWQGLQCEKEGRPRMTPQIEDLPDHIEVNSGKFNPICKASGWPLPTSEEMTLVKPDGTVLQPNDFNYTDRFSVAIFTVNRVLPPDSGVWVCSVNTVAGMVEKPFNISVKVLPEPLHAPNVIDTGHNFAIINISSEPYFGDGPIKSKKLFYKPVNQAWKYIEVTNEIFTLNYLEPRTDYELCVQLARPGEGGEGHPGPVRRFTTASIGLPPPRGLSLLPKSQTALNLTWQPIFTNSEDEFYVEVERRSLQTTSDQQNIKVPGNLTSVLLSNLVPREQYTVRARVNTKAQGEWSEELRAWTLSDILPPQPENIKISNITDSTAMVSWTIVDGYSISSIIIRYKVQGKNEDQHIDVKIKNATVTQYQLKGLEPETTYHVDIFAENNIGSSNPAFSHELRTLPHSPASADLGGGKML

[3] = target: T2, human Tie2-Fc (Fc-conjugated extracellular domain of Tie2) (human, UniProt Q02763 23-748); test: pull-down; purified human or mouse Tie2-Fc coupled to protein A sepharose beads; input ligand (rhAng1 or VT) incubated with the beads; bound and unbound fractions compared; beads only as control; settings: both partners purified
T2 construct: Tie2 receptor tyrosine kinase, human, extracellular domain; the supplementary Materials and Methods may tell them; also called hTie2-Fc; hTie2; source: purified

[4] = target: T3, mouse Tie2-Fc (Fc-conjugated extracellular domain of Tie2) (mouse, UniProt Q02858 23-746); test: as above; settings: both partners purified
T3 construct: Tie2 receptor tyrosine kinase, mouse, extracellular domain; the supplementary Materials and Methods may tell them; also called mTie2-Fc; mTie2; source: purified

Molecule: CCN(CC)CCNC(=O)c1c(C)[nH]c(/C=C2\C(=O)Nc3ccc(F)cc32)c1C [sunitinib, reference compound]
- phase III clinical trial outcome [1]: repeatedly failed in multiple phase III clinical trials
- IC50 (Tie2+ ECs (HMVEC-LBl); 'VEGF-rich' media (0.5% FBS + 50 ng/mL VEGF)): 5 µM
- IC50 (Tie2+ ECs (HMVEC-LBl); 'normal' media (5% FBS)): 2 µM

Molecule: CHHHRHSF [Vasculotide, 4-armed maleimide-functionalized polyethylene glycol (PEG) backbone to link together four cysteine-capped T7 peptides, that is, CHHHRHSF]
- interference with SU inhibition of ECs (Tie2+ ECs (HMVEC-LBl); 48 h MTS, VT + SU, Supplementary Fig S2): did not interfere with SU inhibition of Tie2^+ ECs

B1: recombinant human Ang1 (rhAng1) (ligand, UniProt Q15389 16-498, looked up)
chain: HIGCSNQRRSPENSGRRYNRIQHGQCAYTFILPEHDGNCRESTTDQYNTNALQRDAPHVEPDFSSQKLQHLEHVMENYTQWLQKLENYIVENMKSEMAQIQQNAVQNHTATMLEIGTSLLSQTAEQTRKLTDVETQVLNQTSRLEIQLLENSLSTYKLEKQLLQQTNEILKIHEKNSLLEHKILEMEGKHKEELDTLKEEKENLQGLVTRQTYIIQELEKQLNRATTNNSVLQKQQLELMDTVHNLVNLCTKEGVLLKGGKREEEKPFRDCADVYQAGFNKSGIYTIYINNMPEPKKVFCNMDVNGGGWTVIQHREDGSLDFQRGWKEYKMGFGNPSGEYWLGNEFIFAITSQRQYMLRIELMDWEGNRAYSQYDRFHIGNEKQNYRLYLKGHTGTAGKQSSLILHGADFSTKDADNDNCMCKCALMLTGGWWFDACGPSNLNGMFYTAGQNHGKLNGIKWHYFKGPSYSLRSTTMMIRPLDF
notes: angiopoietin-1, human, recombinant; also called angiopoietin-1; source: bought: R&D Systems (named for the Boyden chamber experiments)
- koff [2]: 0.00033 s⁻¹
- binding result [3]: binds
- binding result [4]: binds
